From patent US20060069132A1, “Azolecarboxamide herbicides” (priority 2004, published 2006)
Read-outs that look alike come from different tables or passages of the source.

Tests used:
redroot pigweed = assay: Test A pre-/postemergence herbicide test; assay type: in vivo, Amaranthus retroflexus; settings: Amaranthus retroflexus, 240 h; for pest or weed control at 500 g/ha: 500 g ai/ha; for pest or weed control at 2000 g/ha: 2000 g ai/ha
How it was run: (§1)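 Pre: seeded sandy loam, directed soil spray, compound in non-phytotoxic solvent + surfactant. Post: 1–2-leaf plants (2–10 cm), sprayed to runoff. Greenhouse ~10 d; visual injury vs untreated, 0–100 scale.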

lambsquarters = assay: Test C pre-/postemergence herbicide test; assay type: in vivo, Chenopodium album
How it was run: (§2)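 Visual injury scores run from 0 (no effect) to 100 (complete control), assessed relative to untreated controls 12 to 14 days after treatment in the greenhouse. Chemicals were formulated in a non-phytotoxic solvent mixture with surfactant and applied to soil after planting or to emerged plants at the 1- to 4-leaf stage.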

velvetleaf = assay: Test C pre-/postemergence herbicide test; assay type: in vivo, Abutilon theophrasti
How it was run: as §2

morningglory [1] = assay: Test A pre-/postemergence herbicide test; assay type: in vivo, Ipomoea spp.; settings: Ipomoea, 240 h; for pest or weed control at 500 g/ha: 500 g ai/ha; for pest or weed control at 2000 g/ha: 2000 g ai/ha
How it was run: as §1

common ragweed = assay: Test C pre-/postemergence herbicide test; assay type: in vivo, Ambrosia elatior
How it was run: as §2

barnyardgrass = assay: Test A pre-/postemergence herbicide test; assay type: in vivo, Echinochloa crus-galli; settings: Echinochloa crus-galli, 240 h; for pest or weed control at 500 g/ha: 500 g ai/ha; for pest or weed control at 2000 g/ha: 2000 g ai/ha
How it was run: as §1

rice = assay: Test C flooded paddy test; assay type: in vivo, Oryza sativa; settings: Oryza sativa
How it was run: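 Postemergence sprays applied to plants 2 to 18 cm tall (1- to 4-leaf stage); paddy species grown to 2-leaf stage under flooding. After 12 to 14 days in greenhouse, visual rating versus untreated controls on 0–100 scale (0 no effect, 100 complete control).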

bermudagrass = assay: Test C pre-/postemergence herbicide test; assay type: in vivo, Cynodon dactylon
How it was run: as §2

[2] = system: smallflower umbrella sedge; assay: Test C flooded paddy test; assay type: in vivo, Cyperus difformis; settings: Cyperus difformis
giant foxtail = assay: Test C pre-/postemergence herbicide test; assay type: in vivo, Setaria faberi
How it was run: as §2

morningglory [3] = assay: Test C pre-/postemergence herbicide test; assay type: in vivo, Ipomoea coccinea
How it was run: as §2

large crabgrass = assay: Test C pre-/postemergence herbicide test; assay type: in vivo, Digitaria sanguinalis
How it was run: as §2

[4] = post-emergence, Postemergence, 0 to 100 scale, 0 no effect, 100 complete control, read-out: Plant response rating, Pigweed
[5] = Preemergence, 500 g ai/ha, scale 0 to 100, 0 no effect, 100 complete control
[6] = post-emergence, Postemergence, 0 to 100 scale, 0 no effect, 100 complete control, read-out: Plant response rating, Morningglory
[7] = post-emergence, Postemergence, 0 to 100 scale, 0 no effect, 100 complete control, read-out: Plant response rating, Barnyardgrass

CCNC(=O)c1ccc(F)c(NC(=O)c2cc(C(C)(C)C)nn2CC)c1 [Compound 2, 3-(1,1-dimethylethyl)-1-ethyl-N-[5-[(ethylamino)carbonyl]-2-fluorophenyl]-1H-pyrazole-5-carboxamide]
60: Plant response rating (0 = no effect, 100 = complete control), Velvetleaf (velvetleaf; 62 g ai/ha, preemergence)
85%: plant injury at 500 g/ha (rice; 500 g ai/ha, visual rating after 12 to 14 days, scale 0 to 100 (0 no effect, 100 complete control), read-out: Plant response rating, Rice) | pest or weed control at 250 g/ha ([2]; 250 g ai/ha, visual rating after 12 to 14 days, scale 0 to 100 (0 no effect, 100 complete control), read-out: Plant response rating, Sedge, Umbrella)
45%: pest or weed control at 500 g/ha (morningglory [1]; [6]) | pest or weed control at 250 g/ha (morningglory [3]; Ipomoea, pre-emergence, 250 g ai/ha, scale 0 to 100 (0 no effect, 100 complete control), visual, 12 to 14 days, read-out: Plant response rating, Morningglory)
85: Plant response rating (0 = no effect, 100 = complete control), Bermudagrass (bermudagrass; 62 g ai/ha, preemergence)
90%: pest or weed control at 125 g/ha (bermudagrass; Cynodon dactylon, pre-emergence, 312 h, 125 g ai/ha, scale 0-100, read-out: Plant response rating, Bermudagrass)
75%: pest or weed control at 62 g/ha ([2]; 62 g ai/ha, scale 0 to 100 (0 no effect, 100 complete control), read-out: Sedge, Umbrella plant response rating) | pest or weed control at 125 g/ha ([2]; 125 g ai/ha, scale of 0 to 100, 0 is no effect, 100 is complete control, read-out: Sedge, Umbrella plant response rating)
5: Plant response rating (0 = no effect, 100 = complete control), Morningglory (morningglory [3]; 62 g ai/ha, preemergence)
95%: pest or weed control at 250 g/ha (bermudagrass; Cynodon dactylon, pre-emergence, 312 h, 250 g ai/ha, scale 0 to 100 (0 no effect, 100 complete control), visual, 12 to 14 days, read-out: Plant response rating, Bermudagrass) | pest or weed control at 500 g/ha (bermudagrass; Cynodon dactylon, pre-emergence, 312 h, Preemergence, 500 g ai/ha, scale 0 to 100, 0 no effect, 100 complete control, read-out: Bermudagrass plant response rating) | pest or weed control at 500 g/ha ([2]; 500 g ai/ha, visual rating after 12 to 14 days, scale 0 to 100 (0 no effect, 100 complete control), read-out: Plant response rating, Sedge, Umbrella) | pest or weed control at 125 g/ha (large crabgrass; Digitaria sanguinalis, pre-emergence, 312 h, 125 g ai/ha, scale 0-100, read-out: Plant response rating, Crabgrass, Large)
95: Plant response rating (0 = no effect, 100 = complete control), Crabgrass, Large (large crabgrass; 62 g ai/ha, preemergence)
65%: plant injury at 250 g/ha (rice; 250 g ai/ha, visual rating after 12 to 14 days, scale 0 to 100 (0 no effect, 100 complete control), read-out: Plant response rating, Rice)
100%: pest or weed control at 500 g/ha (redroot pigweed; [4]) | pest or weed control at 2000 g/ha (redroot pigweed; [4]) | pest or weed control at 500 g/ha (redroot pigweed; pre-emergence, Preemergence, visual rating, 0 to 100 scale (0 no effect, 100 complete control), read-out: Pigweed plant response rating) | pest or weed control at 2000 g/ha (redroot pigweed; pre-emergence, Preemergence, 0 to 100 scale, 0 no effect, 100 complete control, read-out: Pigweed plant response rating) | pest or weed control at 125 g/ha (lambsquarters; Chenopodium album, pre-emergence, 125 g ai/ha, scale 0-100, read-out: Plant response rating, Lambsquarters) | pest or weed control at 250 g/ha (lambsquarters; Chenopodium album, pre-emergence, 250 g ai/ha, scale 0 to 100 (0 no effect, 100 complete control), visual, 12 to 14 days, read-out: Plant response rating, Lambsquarters) | pest or weed control at 250 g/ha (velvetleaf; Abutilon theophrasti, pre-emergence, 250 g ai/ha, scale 0 to 100 (0 no effect, 100 complete control), visual, 12 to 14 days, read-out: Plant response rating, Velvetleaf) | pest or weed control at 2000 g/ha (morningglory [1]; pre-emergence, Preemergence, 0 to 100 scale, 0 no effect, 100 complete control, read-out: Morningglory plant response rating) | pest or weed control at 250 g/ha (common ragweed; Ambrosia artemisiifolia, pre-emergence, 250 g ai/ha, scale 0 to 100 (0 no effect, 100 complete control), visual, 12 to 14 days, read-out: Plant response rating, Ragweed) | pest or weed control at 500 g/ha (barnyardgrass; [7]) | pest or weed control at 2000 g/ha (barnyardgrass; [7]) | pest or weed control at 500 g/ha (barnyardgrass; pre-emergence, Preemergence, visual rating, 0 to 100 scale (0 no effect, 100 complete control), read-out: Barnyardgrass plant response rating) | pest or weed control at 2000 g/ha (barnyardgrass; pre-emergence, Preemergence, 0 to 100 scale, 0 no effect, 100 complete control, read-out: Barnyardgrass plant response rating) | pest or weed control at 125 g/ha (giant foxtail; Setaria faberi, pre-emergence, 312 h, 125 g ai/ha, scale 0-100, read-out: Plant response rating, Foxtail, Giant) | pest or weed control at 250 g/ha (giant foxtail; Setaria faberi, pre-emergence, 312 h, 250 g ai/ha, scale 0 to 100 (0 no effect, 100 complete control), visual, 12 to 14 days, read-out: Plant response rating, Foxtail, Giant) | pest or weed control at 250 g/ha (large crabgrass; Digitaria sanguinalis, pre-emergence, 312 h, 250 g ai/ha, scale 0 to 100 (0 no effect, 100 complete control), visual, 12 to 14 days, read-out: Plant response rating, Crabgrass, Large)
80: Plant response rating (0 = no effect, 100 = complete control), Ragweed (common ragweed; 62 g ai/ha, preemergence) | Plant response rating (0 = no effect, 100 = complete control), Foxtail, Giant (giant foxtail; 62 g ai/ha, preemergence)
100: Plant response rating (0 = no effect, 100 = complete control), Lambsquarters (lambsquarters; 62 g ai/ha, preemergence) | Lambsquarters plant response rating (lambsquarters; [5]) | Velvetleaf plant response rating (velvetleaf; [5]) | Ragweed plant response rating (common ragweed; [5]) | Foxtail, Giant plant response rating (giant foxtail; [5]) | Morningglory plant response rating (morningglory [3]; [5]) | Crabgrass, Large plant response rating (large crabgrass; [5])
80%: pest or weed control at 2000 g/ha (morningglory [1]; [6]) | pest or weed control at 500 g/ha (morningglory [1]; pre-emergence, Preemergence, visual rating, 0 to 100 scale (0 no effect, 100 complete control), read-out: Morningglory plant response rating)
50%: plant injury at 62 g/ha (rice; 62 g ai/ha, scale 0 to 100 (0 no effect, 100 complete control), read-out: Rice plant response rating) | plant injury at 125 g/ha (rice; 125 g ai/ha, scale of 0 to 100, 0 is no effect, 100 is complete control, read-out: Rice plant response rating)
